Data on two compounds can be found in patent publication US6342335B1, “Polymethine compounds, method of producing same, and use thereof” (Yamamoto Chemicals, Inc., priority 1999, dated 2002).

A short description of series [1]: Solubility test in methyl ethyl ketone. The series is classed as physicochemical. As to conditions: 25° C. overnight, visual inspection for insoluble matter. Here is the method:
The solubility of the polymethine compound of the invention in methyl ethyl ketone as well as the solubilities of said known Compound A and Compound B were measured. Solubility measurements were carried out by the following method.
A 5 ml screw tube was charged with 200 mg of each polymethine compound and 1 ml of methyl ethyl ketone and agitated for dissolution with Mix-Rotor at 25° C. overnight. Each sample was visually inspected for insoluble matter. When no insoluble residue was found, the solubility was rated ≧20%. When an insoluble residue was found, the solubility was rated less than 20%.

A short description of series [2]: Maximum absorption wavelength (λmax) in diacetone alcohol. The series is classed as physicochemical. The procedure: The maximum absorption wavelength (λmax) of the polymethine compound of the present invention in diacetone alcohol as well as those of known Compound A and Compound B were measured.

In the case of `COCCN1/C(=C\C=C2/CCCC(/C=C/C3=[N+](CCOC)c4c(C)cc(OC)cc4C3(C)C)=C2Cl)C(C)(C)c2cc(OC)cc(C)c21` [Compound (55), 2-(2-{2-chloro-3-[(1,3-dihydro-3,3,7-trimethyl-5-methoxy-1-methoxyethyl-2H-indol-2-ylidene)ethylidene]-1-cyclohexen-1-yl}ethenyl)-3,3,7-trimethyl-5-methoxy-1-methoxyethylindolium=tetrafluoroborate], the “Solubility (g/ml)” value in series [1] was “≧20%”. In addition, in series [2], the λmax is on record as 822 nm.
For `COCCN1/C(=C\C=C2/CCCC(/C=C/C3=[N+](CCOC)c4ccccc4C3(C)C)=C2Cl)C(C)(C)c2ccccc21` [Compound A, reference compound], in series [2], the λmax is 788 nm.
